Entries after “also recorded” stand apart in the source; their conditions may differ.
Legend:
wild type transthyretin [1] = molecular target: T1, wild type transthyretin (Homo sapiens, UniProt P02766); test: Displacement of 125I-T4 from transthyretin in whole serum; format: binding; settings: mean
Source text: 3.2.3.2. Quantitative studies in serum. […] The immunoprecipitate was recovered by centrifugation, washed twice with 0.1 M Tris, 0.1 M NaCl, pH 8.0 and counted.

[2] = molecular target: T2, wild type transthyretin isolated from plasma (Homo sapiens, UniProt P02766); test: Competition with 125I-T4 for binding by pure transthyretin; settings: 125 nM transthyretin, trace 125I-T4, pH 8.0, overnight 4° C.
T2 construct: Native tetrameric transthyretin was purified from fractionated human plasma; from tissue; host or cells: human plasma

[3] = molecular target: L55P variant transthyretin (Homo sapiens, UniProt P02766, L75P); test: Inhibition of transthyretin aggregation at acidic pH (turbidity at 400 nm); format: biochemical
Method: (§1) 3.3.2 Inhibition of transthyretin aggregation by 4ajm15: In pilot experiments, transthyretin aggregates were formed from wild type transthyretin (3.6 μM) after incubation at acidic pH for 3 d at 37° C. (Colon and Kelly, 1992). The efficacy of 4ajm15 as an inhibitor of transthyretin aggregate formation was then compared with other transthyretin ligand compounds. […] After 30 min at 37° C., the pH was adjusted to pH 4.4 (with 0.2 M sodium acetate buffer pH 4.0), and the ˜1 ml mixtures were incubated unstirred for 3 d at 37° C.
(§2) Using the same method the activities of mds84 and 4ajm15 as inhibitors of the aggregation of both wild type transthyretin and the most aggressively aggregating transthyretin variant, L55P, were evaluated in triplicate with both proteins at 3.6 μM and with one (3.6 μM) or 3 equivalents (10.8 μM) of each ligand. Wild type transthyretin was studied at pH 4.4 and L55P at pH 5.0. […] Mean values and standard deviations are shown in Table 2 and in FIG. 4, where results with 1:1 molar ratio are shown cross hatched and 3:1 molar ratio in open bars.

wild type transthyretin [4] = molecular target: T1, wild type transthyretin; test: Differential scanning calorimetry of transthyretin with ligand; format: binding; design: isolated from pooled normal human plasma, was obtained from Scipac; purchased Scipac Ltd, Sittingbourne, Kent, UK; host or cells: pooled normal human plasma
transthyretin = molecular target: T3, transthyretin (Homo sapiens, UniProt P02766); test: Intrinsic fluorescence quenching of transthyretin by ligand titration; format: binding; settings: 1 μM transthyretin, PBS pH 7.4, ligand 0-2 μM, excitation 280 nm, 20° C.
T3 construct: Native tetrameric transthyretin was purified from fractionated human plasma; from tissue; host or cells: human plasma
Method: 3.2.1. Binding of 4ajm15 and mds84 by transthyretin. The interactions between the ligands 4ajm15 or mds84 and transthyretin were studied by monitoring intrinsic fluorescence in the emission range 300-500 nm on excitation at 280 nm using a Perkin Elmer LS55 fluorimeter and a standard 1 cm path length quartz cell at 20° C. Quenching of tryptophan was achieved by titrating 1 μM transthyretin in PBS, pH 7.4 with increasing concentrations of each ligand in the range 0-2 μM (FIG. 2A). […] At the same time the changes in 4ajm15 fluorescence upon binding to the protein were monitored in the emission range 400-600 nm and excitation at 340 nm that is the wavelength specific for 4ajm15 excitation. In these conditions, accumulation of the spectra highlights an isosbestic point at 483 nm (FIG. 2B). The same results were achieved by using mds84 (not shown). The results of the titration of 4ajm15 in presence and absence of transthyretin support a model of binding in which both the binding sites are simultaneously occupied by the palindromic ligand.
In each case increasing concentrations of ligand (0-2 μM) were added to 1 μM protein. The arrow in FIG. 2B indicates the isosbestic point at 483 nm occurring on formation of the protein ligand complex. […] The percent quenching represents ΔF/F0 where F0 is fluorescence intensity prior to the addition of ligands and AF is the decrease in fluorescence at a given ligand concentration.

wild type transthyretin [5] = molecular target: T1, wild type transthyretin; test: Inhibition of transthyretin aggregation at acidic pH (turbidity at 400 nm); format: biochemical; design: isolated from pooled normal human plasma, was obtained from Scipac; purchased Scipac Ltd, Sittingbourne, Kent, UK; host or cells: pooled normal human plasma; settings: pH 4.4, 3 d 37° C.
Method: 3.3.1 Wild type transthyretin. The purified wild type transthyretin (liquid and lyophilised) used in these experiments, isolated from pooled normal human plasma, was obtained from Scipac, (Sittingbourne, Kent, UK). Protein concentration was determined by absorbance at 280 nm after correction for light scattering at 320 nm using the absorption coefficient E1 cm^1%=14.0. […] Nano electrospray ionisation mass spectrometry confirmed the presence of normal and cysteinylated transthyretin monomers (Terazaki et al, 1998) under denaturing conditions, and solvent-bound transthyretin tetramer (Nettleton et al, 1998) under mild desolvation conditions.
as §1, §2

[6] = molecular target: T4, native wild type transthyretin (Homo sapiens, UniProt P02766); test: Gel filtration (Superdex 200) of transthyretin-ligand complexes; format: binding; settings: for A280/A330 ratio of main component eluting at 14.4 ml: 2 nanomoles transthyretin incubated 1 h with 1 μl of 4 mM ligand in DMSO, PBS; for dissociation of ligand from the complex during gel filtration: after 100 volume solvent exchanges
T4 construct: isolated from pooled normal human plasma, was obtained from Scipac; purchased Scipac Ltd, Sittingbourne, Kent, UK; host or cells: pooled normal human plasma
Method: 1.3 Gel filtration. Native transthyretin was eluted with either PBS or 150 mM ammonium bicarbonate (pH 7.6) from a Superdex 200 (30×1.0 cm) column, run on an ÅKTA Explorer system, as a UV absorbing peak (A280/A330˜30 to 50:1) with Ve 14.4 ml (FIG. 1). A minor (<5%) higher molecular weight component eluting at 12.5 ml was always seen.
3.1.1. Binding of 4ajm15 and mds84 by transthyretin. One μl (5.3 nmol) of a concentrated (5.3 mM) solution of 4ajm15 in DMSO was added to 3.8 nmol of transthyretin in 100 μl PBS (1.4 fold molar excess of ligand) and incubated at room temperature for 30 min. The sample was chromatographed on Superdex 200, where the transthyretin-4ajm15 complex eluted at 14.4 ml, with a reduced A280/A330 ratio (˜5:1) consistent with binding. A similar result was obtained with transthyretin and 4ajm15 when chromatography was undertaken in volatile ammonium bicarbonate buffer. A similar result was also obtained when mds84 (2 nmol) was first dried into a tube and then resuspended in 5 μl of DMSO before adding the protein solution. In further experiments, 2 nanomoles of native wild type transthyretin (Scipac) were incubated in 55 μl of PBS for 1 h with either 1 μl DMSO (control) or 1 μl of a 4 mM solution in DMSO of mds84 or 4ajm15. Samples were chromatographed on a Superdex 200 column (30×1 cm) in PBS at 0.5 ml/min, with 0.5 ml fractions collected (FIG. 1). […] The full UV spectra of the main components were determined in each case and were consistent with a transthyretin:ligand ratio of ˜1:0.9.

[7] = five fold molar excess of ligand

| SMILES | IC50 (wild type transthyretin [1]) | IC50 [2] | aggregation of L55P in the presence of ligand ([3]; L55P, pH 5.0, results not shown, in words) | midpoint of thermal denaturation (Tm) in the presence of ligand (wild type transthyretin [4]; preliminary DSC, 0.02 mM tetramer, 0.2 mM ligand, PBS pH 7.4, 2% DMSO, transthyretin alone 99.5) | intrinsic fluorescence of transthyretin remaining after titration (transthyretin) | transthyretin aggregate formation in the presence of ligand (wild type transthyretin [5]; wild type, in words) | A280/A330 ratio of main component eluting at 14.4 ml [6] | dissociation of ligand from the complex during gel filtration [6] | Aggregation of transthyretin, Mean (1:1) ([3]; L55P 3.6 μM, ligand 3.6 μM, pH 5.0) | Aggregation of transthyretin, Mean (3:1) ([3]; L55P 3.6 μM, ligand 10.8 μM, pH 5.0) | Tm of wild type transthyretin with the ligand (wild type transthyretin [4]; [7]) | increase in Tm of wild type transthyretin (wild type transthyretin [4]; [7]) | Aggregation of transthyretin, Mean (1:1) (wild type transthyretin [5]; wild type 3.6 μM, ligand 3.6 μM) | Aggregation of transthyretin, Mean (3:1) (wild type transthyretin [5]; wild type 3.6 μM, ligand 10.8 μM) |
| --- | --- | --- | --- | --- | --- | --- | --- | --- | --- | --- | --- | --- | --- | --- |
| O=C(O)c1ccccc1Nc1cc(Cl)c(OCCCCCCCCCCCOc2c(Cl)cc(Nc3ccccc3C(=O)O)cc2Cl)c(Cl)c1 [4ajm15, 2,2′-(4,4′-(undecane-1,11-diylbis(oxy))bis(3,5-dichloro-4,1-phenylene))bis(azanediyl)dibenzoic acid] | 27 µM | 0.2 ± 0.07 µM | identical to those with mds84 | 103.6 °C | 40% | dramatically reduced; also recorded: identical to those with mds84 | ~4.6 | negligible dissociation | – | – | – | – | – | – |
| O=C(O)c1ccccc1Nc1cc(Cl)c(OCCCCCCCOc2c(Cl)cc(Nc3ccccc3C(=O)O)cc2Cl)c(Cl)c1 [mds84, 2,2′-(4,4′-(heptane-1,7-diylbis(oxy))bis(3,5-dichloro-4,1-phenylene))bis(azanediyl)dibenzoic acid] | 11.9 µM | 0.15 ± 0.025 µM | – | – | 40% | – | ~4.6 | negligible dissociation | 17 per cent of control with DMSO alone | 9.9 per cent of control with DMSO alone | 107.5 °C | 6.2 °C | 1.7 per cent of control with DMSO alone | 2 per cent of control with DMSO alone |
